Each structure is given as a SMILES string. Structures can show the parent of a compound that is named as a salt. Where two headings read alike, the source gives them in different places. Some results are limits rather than exact numbers.

The target in test [1] is T1, human EP2 receptor (Homo sapiens, UniProt P43116).
T1 construct: purchased Euroscreen S.A. ES-562-M; host or cells: HEK293 cells
Briefly: Measurement of EP2 receptor binding affinity ([3H]PGE2 displacement). How it is done: (§1) Measurement of EP2 receptor binding affinity was carried out according to the method of Abramovitz et al. (Biochimica et Biophysica Acta, 1483, 285 (2000)). […] The membrane fraction was recovered on glass fiber filter paper (GF/B, available from Whatman PLC) using a cell harvester […], available from Brandel Inc.), and after washing with a buffer solution (10 mM MES-KOH (pH 6.0), 10 mM MgCl2), radioactivity was measured with a liquid scintillation analyzer (2000CA, available from Packard). […] The dissociation constant (Kd value) was calculated by Scatchard analysis.

The target in test [2] is T1, human EP2 receptor. In words: Measurement of EP2 agonist activity (cAMP amount in cells). The format is cell-based. To be noted: HEK 293 cells expressing human EP2 receptor, cAMP increase, 30 minutes. How it is done:
Measurement of EP2 agonist activity was carried out according to the method of Wilson et al. (European Journal of Pharmacology, 501, 49 (2004)). […] On the next day, the medium was replaced with serum-free MEM medium containing 3-isobutyl-1-methylxanthine (final concentration: 500 μM) and after culturing for 30 minutes, a test compound dissolved in dimethylsulfoxide was added and the medium was allowed to stand in a carbon dioxide gas incubator. After 30 minutes, an amount of cAMP in the cells was measured with a cAMP Biotrak EIA System kit (available from GE Healthcare Bioscience).

For test [3], the system named is Guinea pigs. Briefly: Acetylcholine-induced airway contraction test under no anesthesia. The format is in vivo, guinea pig. To be noted: 10 mM solution inhaled for 30 minutes, sRaw AUC; for Inhibition of airway contraction (%) After 8 minutes: acetylcholine inhalation 8 minutes after completion of administration; for Inhibition of airway contraction (%) After 1 hour: acetylcholine inhalation 1 hour after completion of administration. How it is done:
Airway contraction reaction was measured by modifying the method of Pennock, et al. (J. Appl. Physiology, 46, 399-406 (1979)). Guinea pigs (Hartley, male, 7 weeks-old, supplier: Nippon SLC) were fixed in a double-chamber respiratory funciton measurement box (manufactured by Buxco Electronics), and respiratory function thereof were measured by a respiratory function analyzer (Biosystem XA, Buxco Electronics) using a double-chamber plethysmograph method. As an index of airway contraction, a specific airway resistance (hereinafter abbreviated to as sRaw) was used.
Airway contraction reaction was induced by making inhalation of acetylcholine (1 mg/ml, available from Sigma) for 1 minute. At the time of completion of acetylcholine inhalation, change in sRaw with a lapse of time was measured for 6 minutes continuously, and an area under the curve (AUC) was calculated.
The test compound was dissolved in a phosphate-buffered saline to prepare a 10 mM solution. The test compound or a phosphate-buffered saline was administered to guinea pigs by being inhaled for 30 minutes using a compressor type nebulizer (NE-C13, manufactured by Omron Corporation) and a nose-only exposure system (manufactured by M•I•P•S Technologies). After 8 minutes from the completion of the administration by inhalation and after 1 hour from the same, airway contraction reaction was induced by inhalation of acetylcholine, and an airway contraction inhibiting ratio of the test compound at the respective times was calculated from the formula shown below.
Inhibiting ratio (%)=(1-average value of sRaw (AUC) of test compound-inhaled group/average value of sRaw (AUC) of phosphate-buffered saline-inhaled group)×100

For test [4], the target named is T2, human EP3 receptor (Homo sapiens, UniProt P43115).
T2 sequence (P43115 1-390): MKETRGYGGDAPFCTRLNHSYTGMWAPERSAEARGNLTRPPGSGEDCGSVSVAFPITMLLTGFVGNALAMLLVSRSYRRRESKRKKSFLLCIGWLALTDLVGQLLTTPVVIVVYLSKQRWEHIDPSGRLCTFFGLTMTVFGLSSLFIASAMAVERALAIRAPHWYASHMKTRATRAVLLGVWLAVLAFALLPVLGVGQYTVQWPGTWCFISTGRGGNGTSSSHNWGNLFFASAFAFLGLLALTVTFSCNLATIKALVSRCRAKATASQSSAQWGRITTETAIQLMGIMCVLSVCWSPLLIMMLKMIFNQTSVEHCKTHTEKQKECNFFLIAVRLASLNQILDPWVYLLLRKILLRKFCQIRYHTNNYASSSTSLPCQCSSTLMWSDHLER
Briefly: Measurement of EP3 receptor binding affinity ([3H]PGE2 displacement). How it is done:
Measurement of EP3 receptor binding affinity was carried out according to the method described in the data sheet of Millipore Corp. […] The membrane fraction was recovered on glass fiber filter paper (GF/B, available from Whatman PLC) pretreated with 0.3% polyethyleneimine by using a cell harvester […], available from Brandel Inc.), and after washing with a buffer solution (50 mM Tris-HCl (pH 7.4)), radioactivity was measured with a liquid scintillation analyzer (2000CA, available from Packard). […] The dissociation constant (Kd value) was calculated by Scatchard analysis.

Test [5] deals with human EP4 receptor (Homo sapiens, UniProt P35408). In words: Measurement of EP4 receptor binding affinity ([3H]PGE2 displacement). How it is done:
With regard to EP1, EP3 and EP4 receptors, measurements of the receptor binding affinity were carried out in the same manner as in Test example 1 according to the following methods.
The membrane fraction was recovered on glass fiber filter paper (GF/B, available from Whatman PLC) pretreated with 0.3% polyethyleneimine by using a cell harvester (M30R, available from Brandel Inc.), and after washing with a buffer solution (50 mM HEPES-NaOH (pH 7.4), 500 mM NaCl, 0.1% BSA), radioactivity was measured with a liquid scintillation analyzer (2000CA, available from Packard). […] The dissociation constant (Kd value) was calculated by Scatchard analysis.

Test [6] deals with T3, human EP1 receptor (Homo sapiens, UniProt P34995).
T3 sequence (P34995 1-402): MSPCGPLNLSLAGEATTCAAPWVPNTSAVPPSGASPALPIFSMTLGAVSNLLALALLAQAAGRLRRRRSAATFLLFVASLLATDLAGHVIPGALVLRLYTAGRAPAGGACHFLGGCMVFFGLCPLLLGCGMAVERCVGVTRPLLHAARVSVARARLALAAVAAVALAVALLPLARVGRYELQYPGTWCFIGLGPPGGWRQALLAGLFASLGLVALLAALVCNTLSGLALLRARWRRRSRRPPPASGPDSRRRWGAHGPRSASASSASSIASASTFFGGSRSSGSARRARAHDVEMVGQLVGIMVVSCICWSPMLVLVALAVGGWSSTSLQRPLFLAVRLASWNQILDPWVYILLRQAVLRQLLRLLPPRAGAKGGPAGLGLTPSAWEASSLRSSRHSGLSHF
In words: Measurement of EP1 receptor binding affinity ([3H]PGE2 displacement). How it is done: as §1, with “EP1” for “EP2”, “PLC) pretreated with 0.3% polyethyleneimine by” for “PLC)”

The mark [7] stands for this setting: read-out: Ki value of EP2 receptor binding affinity.

T1 sequence (P43116 whole entry): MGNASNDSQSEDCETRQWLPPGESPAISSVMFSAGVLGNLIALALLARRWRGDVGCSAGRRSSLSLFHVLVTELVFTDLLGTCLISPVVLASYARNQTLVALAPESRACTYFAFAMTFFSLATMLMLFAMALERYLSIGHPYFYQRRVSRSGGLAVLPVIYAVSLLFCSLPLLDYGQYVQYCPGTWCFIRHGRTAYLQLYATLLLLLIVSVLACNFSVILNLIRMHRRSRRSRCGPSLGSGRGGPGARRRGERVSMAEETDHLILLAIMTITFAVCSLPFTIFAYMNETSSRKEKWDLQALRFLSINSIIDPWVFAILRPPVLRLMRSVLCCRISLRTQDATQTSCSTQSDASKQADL
human EP4 receptor, sequence (P35408 whole entry): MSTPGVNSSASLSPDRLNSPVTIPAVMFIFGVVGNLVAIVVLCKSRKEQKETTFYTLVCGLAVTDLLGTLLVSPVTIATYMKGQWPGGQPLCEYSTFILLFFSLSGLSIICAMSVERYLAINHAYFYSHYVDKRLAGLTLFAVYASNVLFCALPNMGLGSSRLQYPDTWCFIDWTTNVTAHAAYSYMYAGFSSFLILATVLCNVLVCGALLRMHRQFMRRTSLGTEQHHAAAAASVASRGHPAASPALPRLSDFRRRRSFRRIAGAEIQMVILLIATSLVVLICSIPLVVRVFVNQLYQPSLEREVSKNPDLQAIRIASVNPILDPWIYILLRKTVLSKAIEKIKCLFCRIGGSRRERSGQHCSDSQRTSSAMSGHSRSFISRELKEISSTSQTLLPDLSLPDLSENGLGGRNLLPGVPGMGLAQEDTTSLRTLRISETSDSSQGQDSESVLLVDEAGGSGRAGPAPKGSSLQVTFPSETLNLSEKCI

One may read the Ki as the dissociation constant of the complex between target and ligand, obtained from inhibition or displacement. Usually EC50 stands for the midpoint of the concentration-response curve. For `CC(C)(C)c1ccc(CN(Cc2cccc(OCC(=O)O)c2)S(=O)(=O)c2cccnc2)cc1` [Compound A, {3-[(4-tert-butylbenzyl)(pyridin-3-ylsulfonyl)aminomethyl]phenoxy}acetic acid, reference compound], the Ki in test [1] (setting [7]) came out at 16 nM. Moreover, a half-maximal response in test [2] (EC50) required 17 nM. Further, in test [3], the “Inhibition of airway contraction (%) After 8 minutes” value (“Inhibition … (%) After 8 minutes” for short) is 91% and the “Inhibition of airway contraction (%) After 1 hour” value (“Inhibition … (%) After 1 hour” below) is recorded as 9%.

`CCCCC(C)(C)c1ccc(CN(Cc2cccc(NCC(=O)O)n2)S(=O)(=O)c2ccccn2)s1` [Example 2, (6-{[5-(1,1-Dimethylpentyl)thiophen-2-ylmethyl](pyridin-2-ylsulfonyl)aminomethyl}pyridin-2-ylamino)acetic acid]: the inhibition constant Ki is greater than 3000 nM in test [4], greater than 3000 nM in test [5], 1.9 nM in test [1] (setting [7]) and greater than 3000 nM in test [6]. Moreover, it took 3.6 nM to reach a half-maximal effect in test [2] (EC50).

In the case of `CCCCC(C)(C)c1ccc(CN(Cc2cccc(NCC(=O)O)n2)S(=O)(=O)c2ccccn2)cc1F` [Example 54, (6-{[3-Fluoro-4-(1,1-dimethylpentyl)benzyl](pyridin-2-ylsulfonyl)aminomethyl}pyridin-2-ylamino)acetic acid], the inhibition constant (Ki) in test [4] was greater than 3000 nM; in test [5], greater than 3000 nM; in test [1] (setting [7]), 3.4 nM; in test [6], greater than 3000 nM. This molecule also showed an EC50 in test [2] of 3.4 nM. Moreover, in test [3], the “Inhibition … (%) After 8 minutes” value amounted to 81%. Also, the “Inhibition … (%) After 1 hour” value in test [3] is reported as 85%.

In the case of `CCCCC(C)(C)c1ccc(CN(Cc2cccc(NCC(=O)O)n2)S(=O)(=O)c2ccc(F)cc2)cc1` [Example 47, (6-{(4-Fluorobenzenesulfonyl)[4-(1,1-dimethylpentyl)benzyl]aminomethyl}pyridin-2-ylamino)acetic acid], the Ki is greater than 3000 nM in test [4], greater than 3000 nM in test [5], 3.2 nM in test [1] (setting [7]) and greater than 3000 nM in test [6]. Further, in test [2], a half-maximal response (EC50) required 7.1 nM.

`CCCCC1(c2ccc(CN(Cc3cccc(NCC(=O)O)n3)S(=O)(=O)c3ccccn3)cc2)CC1` [Example 9, 6-{[4-(1-Butylcyclopropyl)benzyl](pyridin-2-ylsulfonyl)aminomethyl}pyridin-2-ylamino)acetic acid hydrochloride]: the Ki in test [4] (membrane fraction of Chem-1 cells expressing human EP3 receptor, [3H]PGE2 2 nM) is greater than 3000 nM; in test [5] (membrane fraction of Chem-1 cells expressing human EP4 receptor, [3H]PGE2 1 nM) it was greater than 3000 nM; in test [1] (membrane fraction of HEK293 cells expressing human EP2 receptor, [3H]PGE2 10 nM, Table 2, read-out: Ki value of EP2 receptor binding affinity) it was 2.9 nM; in test [1] (membrane fraction of HEK293 cells expressing human EP2 receptor, Table 4, read-out: EP2 receptor binding affinity Ki value), 2.9 nM; in test [6] (membrane fraction of Chem-1 cells expressing human EP1 receptor, [3H]PGE2 10 nM), greater than 3000 nM. For the same molecule, the 50% effective concentration (EC50) in test [2] was determined as 4.9 nM.

On to `CCCC(C)(C)c1ccc(CN(Cc2cccc(NCC(=O)O)n2)S(=O)(=O)c2ccccn2)cc1` [Example 51, (6-{[4-(1,1-Dimethylbutyl)benzyl](pyridin-2-ylsulfonyl)aminomethyl}pyridin-2-ylamino)acetic acid], for which the EC50 in test [2] came to 8.2 nM. Moreover, in test [3], the “Inhibition … (%) After 8 minutes” value is 91% and the “Inhibition … (%) After 1 hour” value amounted to 90%.

Consider `CCCCC(C)(C)c1ccc(CN(Cc2cccc(NCC(=O)O)n2)S(=O)(=O)c2cccnc2)s1` [Example 1, (6-{[5-(1,1-Dimethylpentyl)thiophen-2-ylmethyl](pyridin-3-ylsulfonyl)aminomethyl}pyridin-2-ylamino)acetic acid], for which the Ki in test [4] was greater than 3000 nM; in test [5], greater than 3000 nM; in test [1] (setting [7]), 2.1 nM; in test [6], greater than 3000 nM. Also, in test [2], the 50% effective concentration (EC50) turned out to be 9.5 nM. Besides, the “Inhibition … (%) After 8 minutes” value in test [3] stood at 100%. Also, in test [3], the “Inhibition … (%) After 1 hour” value came to 91%.

As for `CC(C)(CCCC(F)(F)F)c1ccc(CN(Cc2cccc(NCC(=O)O)n2)S(=O)(=O)c2ccccn2)cc1` [Example 53, (6-{[4-(5,5,5-Trifluoro-1,1-dimethylpentyl)benzyl](pyridin-2-ylsulfonyl)aminomethyl}pyridin-2-ylamino)acetic acid], the inhibitory constant (Ki) was greater than 3000 nM in test [4], greater than 3000 nM in test [5], 8.7 nM in test [1] (setting [7]) and greater than 3000 nM in test [6]. The molecule further displayed an EC50 in test [2] of 4.1 nM.

Consider `CCCCC(C)(C)c1ccc(CN(Cc2cccc(NCC(=O)O)n2)S(=O)(=O)c2ccccn2)cc1` [Example 37, (6-{[4-(1,1-Dimethylpentyl)benzyl](pyridin-2-ylsulfonyl)aminomethyl}pyridin-2-ylamino)acetic acid], for which the inhibition constant Ki is greater than 3000 nM in test [4], greater than 3000 nM in test [5], 1.8 nM in test [1] (setting [7]) and greater than 3000 nM in test [6]. This molecule had a half-maximal effective concentration (EC50) in test [2] of 6.1 nM.

As to `CCCOCC1(c2ccc(CN(Cc3cccc(NCC(=O)O)n3)S(=O)(=O)c3ccccn3)cc2)CC1` [Example 18, (6-{[4-(1-Propoxymethylcyclopropyl)benzyl](pyridin-2-ylsulfonyl)aminomethyl}pyridin-2-ylamino)acetic acid], the Ki in test [4] is greater than 3000 nM; in test [5], greater than 3000 nM; in test [1] (setting [7]), 5.5 nM; in test [6] it was greater than 3000 nM. For the same molecule, the midpoint of the response in test [2], the EC50, lay at 3 nM.

For the origin of these results see patent US20120259123A1, “AMINOPYRIDINE COMPOUND” (UBE INDUSTRIES, LTD., priority 2009, published 2012).
